Here are results for 16 compounds from patent publication US10925876B2, “Methods for using triazolo-pyrazinyl soluble guanylate cyclase activators in fibrotic disorders” (Merck Sharp & Dohme Corp., priority 2016, dated 2021).

The target of one experiment is T1, sGC α1/β1 heterodimer (Homo sapiens, UniProt Q02108+Q02153).
T1 construct: expressed in transfected cells
T1 sequence (Q02108 1-690): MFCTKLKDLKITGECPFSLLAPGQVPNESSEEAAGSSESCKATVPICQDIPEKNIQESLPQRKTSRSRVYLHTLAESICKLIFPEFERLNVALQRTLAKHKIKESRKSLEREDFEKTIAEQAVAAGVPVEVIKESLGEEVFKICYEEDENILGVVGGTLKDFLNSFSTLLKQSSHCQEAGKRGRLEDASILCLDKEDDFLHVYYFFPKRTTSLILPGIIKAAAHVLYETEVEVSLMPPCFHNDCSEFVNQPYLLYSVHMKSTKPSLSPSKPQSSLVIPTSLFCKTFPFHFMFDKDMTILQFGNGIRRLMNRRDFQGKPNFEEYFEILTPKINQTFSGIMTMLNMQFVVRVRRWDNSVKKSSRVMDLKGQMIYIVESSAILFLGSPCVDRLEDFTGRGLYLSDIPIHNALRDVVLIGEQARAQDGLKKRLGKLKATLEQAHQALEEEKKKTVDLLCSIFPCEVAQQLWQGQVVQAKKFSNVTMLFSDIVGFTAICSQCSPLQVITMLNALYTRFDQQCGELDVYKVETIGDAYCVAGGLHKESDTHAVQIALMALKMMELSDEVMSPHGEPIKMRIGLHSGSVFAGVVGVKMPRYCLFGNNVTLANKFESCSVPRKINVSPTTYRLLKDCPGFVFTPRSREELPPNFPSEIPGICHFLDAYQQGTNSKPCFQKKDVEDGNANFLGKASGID
T1 sequence (Q02153 1-619): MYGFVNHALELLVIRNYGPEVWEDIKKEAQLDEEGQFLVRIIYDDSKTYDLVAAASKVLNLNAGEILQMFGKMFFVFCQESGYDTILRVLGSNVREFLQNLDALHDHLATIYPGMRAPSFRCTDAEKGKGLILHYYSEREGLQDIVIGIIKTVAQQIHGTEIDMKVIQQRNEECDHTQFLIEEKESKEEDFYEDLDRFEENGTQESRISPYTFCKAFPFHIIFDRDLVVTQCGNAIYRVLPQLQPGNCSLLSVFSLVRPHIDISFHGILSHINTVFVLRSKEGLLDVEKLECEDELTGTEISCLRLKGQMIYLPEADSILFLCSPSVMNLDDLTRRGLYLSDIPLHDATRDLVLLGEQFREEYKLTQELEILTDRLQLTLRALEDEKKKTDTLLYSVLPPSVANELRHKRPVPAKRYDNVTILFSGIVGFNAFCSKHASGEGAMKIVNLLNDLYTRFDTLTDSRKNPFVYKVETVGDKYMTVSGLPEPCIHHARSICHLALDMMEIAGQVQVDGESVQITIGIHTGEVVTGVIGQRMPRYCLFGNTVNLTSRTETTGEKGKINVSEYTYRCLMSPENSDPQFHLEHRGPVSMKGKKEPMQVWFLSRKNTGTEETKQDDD
Put plainly: Cell-Based sGC Functional Assay (CASA Assay), cGMP generation in CHO-K1/sGC cells.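 Note: reference Compound A is a published heme-dependent sGC activator.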 The settings on record: maximum cGMP production of Compound A set to 100% activation, read-out: % Act. (percent activation relative to Compound A). The method, boiled down:
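Intracellular cGMP quantified by HTRF competition after 1 h, 37 °C compound exposure, with or without 1 μM DETA-NO, in stable CHO-K1/sGC α1/β1 cells (4×10^5/mL; buffer with 0.5 mM IBMX, 5 mM MgCl2, 10 mM HEPES, 0.05% BSA; 2.5% DMSO). Activation normalized to reference Compound A maximum; 4P fit.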

The test system of experiment [1] is Spontaneously hypertensive rats (SHR). Put plainly: Acute Efficacy in Spontaneously Hypertensive Rats (SHR), telemetry blood pressure. The format is in vivo, rat. The settings on record: single oral gavage. Put shortly:
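Male SHR fitted with aortic telemetry transmitters and recovered 14 days; conscious blood pressure sampled 30 s every 10 min. Single oral gavage dose (vehicle 10% transcutol/20% Cremophor/70% water); hourly SBP change versus prior-day vehicle baseline, reported as maximum peak decrease.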

For the compound `CC1(c2ccc(F)cn2)C(=O)Nc2nc(-c3cn4ncnc4c(CCCC(F)(F)F)n3)nc(O)c21` (centres unmarked) [Example 136B, 5-(5-fluoropyridin-2-yl)-4-hydroxy-5-methyl-2-(8-(4,4,4-trifluorobutyl)-[1,2,4]triazolo[1,5-a]pyrazin-6-yl)-5H-pyrrolo[2,3-d]pyrimidin-6(7H)-one], at sGC α1/β1 heterodimer, the Emax is 69%. In addition, the “Maximum peak decrease of systolic blood pressure (SBP) in SHR, Cat.” value (“Maximum peak decrease” for short) in experiment [1] (P.O. 3 mpk) is reported as “B (Category B=SBP in SHRs 20-40 mmHg)”.
As for `CC1(c2ccc(Cl)c(F)c2)C(=O)Nc2nc(-c3cn4ncnc4c(CCCC(F)(F)F)n3)nc(O)c21` (centres unmarked) [Example 138B, 5-(4-chloro-3-fluorophenyl)-4-hydroxy-5-methyl-2-(8-(4,4,4-trifluorobutyl)-[1,2,4]triazolo[1,5-a]pyrazin-6-yl)-5H-pyrrolo[2,3-d]pyrimidin-6(7H)-one], the Emax on sGC α1/β1 heterodimer is 164%. Moreover, the “Maximum peak decrease” value in experiment [1] (P.O. 1 mpk) is “C (Category C=SBP in SHRs >40 mmHg)”.
Turning to `O=C1Nc2nc(-c3cn4ncnc4c(CCCC(F)(F)F)n3)nc(O)c2C1(c1ccc(Cl)cc1)C1CC1` (centres unmarked) [Example 140B, 5-(4-chlorophenyl)-5-cyclopropyl-4-hydroxy-2-(8-(4,4,4-trifluorobutyl)-[1,2,4]triazolo[1,5-a]pyrazin-6-yl)-5H-pyrrolo[2,3-d]pyrimidin-6(7H)-one], the Emax on sGC α1/β1 heterodimer amounted to 150%. Further, in experiment [1] (P.O. 1 mpk), the “Maximum peak decrease” value is “A (Category A=SBP in SHRs <20 mmHg)”.
The like results for `O=C1Nc2nc(-c3cn4ncnc4c(CCCC(F)(F)F)n3)nc(O)c2C1(c1ccc(F)c(F)c1)C1CC1` (centres unmarked) [Example 141A, 5-cyclopropyl-5-(3,4-difluorophenyl)-4-hydroxy-2-(8-(4,4,4-trifluorobutyl)-[1,2,4]triazolo[1,5-a]pyrazin-6-yl)-5H-pyrrolo[2,3-d]pyrimidin-6(7H)-one] were, in that order, 133% and “B (Category B=SBP in SHRs 20-40 mmHg)”.
As for `CC1(c2ccc(Cl)cc2)C(=O)Nc2nc(-c3cn4ncnc4c(CCCC(F)(F)F)n3)nc(O)c21` (centres unmarked) [Example 142A, 5-(4-chlorophenyl)-4-hydroxy-5-methyl-2-(8-(4,4,4-trifluorobutyl)-[1,2,4]triazolo[1,5-a]pyrazin-6-yl)-5H-pyrrolo[2,3-d]pyrimidin-6(7H)-one], on sGC α1/β1 heterodimer, the Emax turned out to be 137%. In addition, in experiment [1] (P.O. 0.3 mpk), the “Maximum peak decrease” value is reported as “B (Category B=SBP in SHRs 20-40 mmHg)”.
Regarding `CC1(c2ccccc2)C(=O)Nc2nc(-c3cn4ncnc4c(CCCC(F)(F)F)n3)nc(O)c21` (centres unmarked) [Example 143B, 4-hydroxy-5-methyl-5-phenyl-2-(8-(4,4,4-trifluorobutyl)-[1,2,4]triazolo[1,5-a]pyrazin-6-yl)-5H-pyrrolo[2,3-d]pyrimidin-6(7H)-one], the Emax on sGC α1/β1 heterodimer was found to be 114%. Also, the “Maximum peak decrease” value in experiment [1] (P.O. 1 mpk) is reported as “B (Category B=SBP in SHRs 20-40 mmHg)”.
As to `CC1(c2ccc(F)c(F)c2)C(=O)Nc2nc(-c3cn4ncnc4c(CCCC(F)(F)F)n3)nc(O)c21` (centres unmarked) [Example 146B, 5-(3,4-difluorophenyl)-4-hydroxy-5-methyl-2-(8-(4,4,4-trifluorobutyl)-[1,2,4]triazolo[1,5-a]pyrazin-6-yl)-5H-pyrrolo[2,3-d]pyrimidin-6(7H)-one], the Emax on sGC α1/β1 heterodimer was 154%. For the same compound, the “Maximum peak decrease” value in experiment [1] (P.O. 0.3 mpk) is on record as “B (Category B=SBP in SHRs 20-40 mmHg)”.
For `C[C@@]1(c2ccc(F)cc2)C(=O)Nc2nc(-c3cn4ncnc4c(CCC(F)(F)F)n3)nc(O)c21` [Example 151A, (S)-5-(4-fluroophenyl)-4-hydroxy-5-methyl-2-(8-(3,3,3-trifluoropropyl)-[1,2,4]triazolo[1,5-a]pyrazin-6-yl)-5,7-dihydro-6H-pyrrolo[2,3-d]pyrimidin-6-one], the Emax at sGC α1/β1 heterodimer turned out to be 120%. Further, in experiment [1] (P.O. 3 mpk), the “Maximum peak decrease” value is reported as “B (Category B=SBP in SHRs 20-40 mmHg)”.
On to `CC1(c2ccc(Cl)cc2)C(=O)Nc2nc(-c3cn4ncnc4c(CCC(F)(F)F)n3)nc(O)c21` (centres unmarked) [Example 152A, 5-(4-chlorophenyl)-4-hydroxy-5-methyl-2-(8-(3,3,3-trifluoropropyl)-[1,2,4]triazolo[1,5-a]pyrazin-6-yl)-5H-pyrrolo[2,3-d]pyrimidin-6(7H)-one], for which, on sGC α1/β1 heterodimer, the Emax came out at 70%. Also, in experiment [1] (P.O. 3 mpk), the “Maximum peak decrease” value is on record as “B (Category B=SBP in SHRs 20-40 mmHg)”.
For the compound `CCCCc1nc(-c2nc(O)c3c(n2)NC(=O)[C@@]3(C)c2ccc(F)cc2)cn2ncnc12` [Example 154A, (S)-2-(8-butyl-[1,2,4]triazolo[1,5-a]pyrazin-6-yl)-5-(4-fluorophenyl)-4-hydroxy-5-methyl-5,7-dihydro-6H-pyrrolo[2,3-d]pyrimidin-6-one], on sGC α1/β1 heterodimer, the Emax stood at 100%. The “Maximum peak decrease” value in experiment [1] (P.O. 0.3 mpk) is recorded as “B (Category B=SBP in SHRs 20-40 mmHg)”.
In the case of `CCCCc1nc(-c2nc(O)c3c(n2)NC(=O)C3(C)c2ccc(F)cn2)cn2ncnc12` (centres unmarked) [Example 155B, 2-(8-butyl-[1,2,4]triazolo[1,5-a]pyrazin-6-yl)-5-(5-fluoropyridin-2-yl)-4-hydroxy-5-methyl-5H-pyrrolo[2,3-d]pyrimidin-6(7H)-one], the Emax on sGC α1/β1 heterodimer was 159%. The “Maximum peak decrease” value in experiment [1] (P.O. 1 mpk) is recorded as “B (Category B=SBP in SHRs 20-40 mmHg)”.
`CCCCc1nc(-c2nc(O)c3c(n2)NC(=O)C3(C)c2ccc(Cl)c(F)c2)cn2ncnc12` (centres unmarked) [Example 156B, 2-(8-butyl-[1,2,4]triazolo[1,5-a]pyrazin-6-yl)-5-(4-chloro-3-fluorophenyl)-4-hydroxy-5-methyl-5H-pyrrolo[2,3-d]pyrimidin-6(7H)-one]: on sGC α1/β1 heterodimer, the Emax came out at 102%. Further, the “Maximum peak decrease” value in experiment [1] (P.O. 0.3 mpk) is “C (Category C=SBP in SHRs >40 mmHg)”.
Turning to `CCCCc1nc(-c2nc(O)c3c(n2)NC(=O)C3(C)c2ccc(F)c(F)c2)cn2ncnc12` (centres unmarked) [Example 158B, 2-(8-butyl-[1,2,4]triazolo[1,5-a]pyrazin-6-yl)-5-(3,4-difluorophenyl)-4-hydroxy-5-methyl-5H-pyrrolo[2,3-d]pyrimidin-6(7H)-one], the Emax at sGC α1/β1 heterodimer worked out at 232%. The “Maximum peak decrease” value in experiment [1] (P.O. 0.3 mpk) was “C (Category C=SBP in SHRs >40 mmHg)”.
Taken in the same sequence, the figures for `CCCCc1nc(-c2nc(O)c3c(n2)NC(=O)C3(C)c2ccc(Cl)cn2)cn2ncnc12` (centres unmarked) [Example 160A, 2-(8-butyl-[1,2,4]triazolo[1,5-a]pyrazin-6-yl)-5-(5-chloropyridin-2-yl)-4-hydroxy-5-methyl-5H-pyrrolo[2,3-d]pyrimidin-6(7H)-one] were 96% and “B (Category B=SBP in SHRs 20-40 mmHg)”.
With `CCCc1nc(-c2nc(O)c3c(n2)NC(=O)C3(C)c2ccc(Cl)cc2)cn2ncnc12` (centres unmarked) [Example 164A, 5-(4-chlorophenyl)-4-hydroxy-5-methyl-2-(8-propyl-[1,2,4]triazolo[1,5-a]pyrazin-6-yl)-5H-pyrrolo[2,3-d]pyrimidin-6(7H)-one], at sGC α1/β1 heterodimer, the Emax was determined as 253%. Further, the “Maximum peak decrease” value in experiment [1] (P.O. 2 mpk) is listed as “B (Category B=SBP in SHRs 20-40 mmHg)”.
On to `CCCc1nc(-c2nc(O)c3c(n2)NC(=O)[C@@]3(C)c2ccc(F)cc2)cn2ncnc12` [Example 165A, (S)-5-(4-fluorophenyl)-4-hydroxy-5-methyl-2-(8-propyl-[1,2,4]triazolo[1,5-a]pyrazin-6-yl)-5,7-dihydro-6H-pyrrolo[2,3-d]pyrimidin-6-one], for which the Emax at sGC α1/β1 heterodimer amounted to 114%. In addition, in experiment [1] (P.O. 3 mpk), the “Maximum peak decrease” value is recorded as “B (Category B=SBP in SHRs 20-40 mmHg)”.
